Data taken from publication PMC7782687, “Insights into SusCD-mediated glycan import by a prominent gut symbiont” (Nature Communications, 2021).
Values joined by “and” are separate entries in the source; they are usually repeats but may differ in a detail not shown here. Equal values may be shown once.

Key:
B. theta Δ1760 strain = assay: Growth of Δ1760 (surface endo-levanase deletion) strain on levans from different sources; type: cell-based, Bacteroides thetaiotaomicron; details: minimal media, anaerobic, 37 °C, replicates 1-3, single wells
Experimental: Growth curves were performed in an Epoch microplate spectrometer (Biotek Instruments Ltd) with 96-well Costar culture plate (Sigma-Aldrich) inside an anaerobic cabinet at 37 °C (Don Whitley Scientific, A35 workstation). Media were inoculated 1:10 with bacterial cultures previously grown overnight in BHI. Final culture volumes of 200 µl were used, and each condition was performed in triplicate. Optical density at 600 nm was measured in each well at 30 min intervals.
In most cases, the levan used was from Erwinia herbicola (Sigma). For analysis of the growth of the Δ1760 strain, bacterial levans from Bacillus sp. (Montana Polysaccharides) and Zymomonas mobilis[64] (a kind gift from Prof. Dr. Yekta Göksunger, Ege University, Izmir, Turkey) were also used, as well as levan from Timothy grass (Megazyme) and in vitro synthesised levan. In vitro synthesised levan was made using Bacillus subtilis levansucrase incubated with 20% sucrose in PBS for 24 h at 37 °C. Proteinase K (100 µg/ml) was then added to remove the protein, before being precipitated out using 0.5% trichloroacetic acid final. The levan was then extensively dialysed against water and freeze dried.

[1] = biological target: T1, Bt1763 (SusC) TonB-dependent transporter of the Bacteroides thetaiotaomicron levan utilisation locus (Bacteroides thetaiotaomicron, UniProt Q8A6W3 26-1041); assay: crystal structure; Bt1762-63 purified from B. theta outer membranes, in 0.4% C8E4; apo and with 2.5 mM β2,6 FOS; 0.15 M sodium formate, 0.1 M HEPES pH 7-7.5, 16-20% PEG 3350; details: both partners purified
T1 construct: Bt1763 (SusC), TonB-dependent transporter of the levan PUL, Bacteroides thetaiotaomicron VPI-5482; numbers count on: the mature protein; In closed states seen by cryo-EM the plug domain has no density; source: endogenous, B. thetaiotaomicron VPI-5482 (Bt1762-his strain) grown on MM fructose; outer membrane extracted with LDAO; purified with His-tagged Bt1762 (IMAC, SEC)
T1 sequence (looked up): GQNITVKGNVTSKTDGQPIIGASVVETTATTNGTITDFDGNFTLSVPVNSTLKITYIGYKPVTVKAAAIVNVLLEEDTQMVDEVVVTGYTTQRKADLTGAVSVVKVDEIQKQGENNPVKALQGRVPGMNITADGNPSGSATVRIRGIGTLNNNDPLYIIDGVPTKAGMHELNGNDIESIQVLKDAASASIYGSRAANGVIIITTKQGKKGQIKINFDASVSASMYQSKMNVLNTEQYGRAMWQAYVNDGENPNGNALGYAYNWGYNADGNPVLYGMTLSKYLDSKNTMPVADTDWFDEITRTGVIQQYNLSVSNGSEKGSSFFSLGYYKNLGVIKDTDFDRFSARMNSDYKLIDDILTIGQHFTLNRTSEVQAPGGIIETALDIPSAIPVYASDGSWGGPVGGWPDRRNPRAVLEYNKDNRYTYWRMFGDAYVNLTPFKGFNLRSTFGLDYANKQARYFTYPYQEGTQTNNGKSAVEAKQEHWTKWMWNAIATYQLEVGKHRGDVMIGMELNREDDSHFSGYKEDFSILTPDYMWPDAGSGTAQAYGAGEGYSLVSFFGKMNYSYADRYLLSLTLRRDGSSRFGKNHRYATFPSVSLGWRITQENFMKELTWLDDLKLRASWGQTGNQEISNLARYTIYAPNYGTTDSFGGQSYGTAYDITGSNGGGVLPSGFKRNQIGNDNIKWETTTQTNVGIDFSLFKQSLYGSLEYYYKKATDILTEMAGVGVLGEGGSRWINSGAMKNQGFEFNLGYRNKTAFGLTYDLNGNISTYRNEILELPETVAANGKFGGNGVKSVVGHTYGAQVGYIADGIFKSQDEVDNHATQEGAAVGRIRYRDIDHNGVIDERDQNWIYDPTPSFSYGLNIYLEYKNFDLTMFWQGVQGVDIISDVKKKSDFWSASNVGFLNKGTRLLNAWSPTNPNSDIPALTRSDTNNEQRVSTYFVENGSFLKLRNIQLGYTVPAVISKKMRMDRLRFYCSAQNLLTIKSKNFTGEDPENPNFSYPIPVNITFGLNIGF

[2] = biological target: the molecule itself; assay: as above

## O=C(CO)C(O)C(O)C(O)CO (centres unmarked) [Frc]
B. theta Δ1760 strain; time 00:00:00, carbon source 0.5 %
  Optical density at 600 nm: 0.303 and 0.324 and 0.321 and 0.418 and 0.289 and 0.311 and 0.334 and 0.296 and 0.325
B. theta Δ1760 strain; time 00:30:00, carbon source 0.5 %
  Optical density at 600 nm: 0.171 (2×) and 0.174 (2×) and 0.172 (2×) and 0.177 and 0.173 and 0.181
B. theta Δ1760 strain; time 01:00:00, carbon source 0.5 %
  Optical density at 600 nm: 0.178 (2×) and 0.179 (2×) and 0.177 (2×) and 0.18 (2×) and 0.182
B. theta Δ1760 strain; time 01:30:00, carbon source 0.5 %
  Optical density at 600 nm: 0.186 and 0.189 (2×) and 0.187 (2×) and 0.188 (2×) and 0.184 and 0.19
B. theta Δ1760 strain; time 02:00:00, carbon source 0.5 %
  Optical density at 600 nm: 0.194 and 0.197 and 0.196 (2×) and 0.199 (2×) and 0.191 and 0.202 and 0.198
B. theta Δ1760 strain; time 02:30:00, carbon source 0.5 %
  Optical density at 600 nm: 0.203 and 0.21 and 0.212 and 0.211 and 0.198 and 0.204 and 0.215 and 0.206 and 0.214
B. theta Δ1760 strain; time 03:00:00, carbon source 0.5 %
  Optical density at 600 nm: 0.211 and 0.217 and 0.232 and 0.225 and 0.205 and 0.212 and 0.229 and 0.214 and 0.226
B. theta Δ1760 strain; time 03:30:00, carbon source 0.5 %
  Optical density at 600 nm: 0.22 and 0.224 (2×) and 0.261 and 0.24 (2×) and 0.214 and 0.221 and 0.255
B. theta Δ1760 strain; time 04:00:00, carbon source 0.5 %
  Optical density at 600 nm: 0.228 and 0.23 (2×) and 0.304 and 0.261 (2×) and 0.22 and 0.234 and 0.284
B. theta Δ1760 strain; time 04:30:00, carbon source 0.5 %
  Optical density at 600 nm: 0.233 and 0.24 and 0.355 and 0.279 and 0.223 and 0.252 and 0.313 and 0.238 and 0.283
B. theta Δ1760 strain; time 05:00:00, carbon source 0.5 %
  Optical density at 600 nm: 0.238 and 0.259 and 0.442 and 0.309 and 0.227 and 0.278 and 0.351 and 0.243 and 0.306
B. theta Δ1760 strain; time 05:30:00, carbon source 0.5 %
  Optical density at 600 nm: 0.249

B1: Bt1762 (SusD) of the Bacteroides thetaiotaomicron levan utilisation locus, with C-terminal His6 tag (natural protein, UniProt Q8A6W4 19-570, looked up)
chain: CDDFLDRQVPQGIVTGDQIASPEYVDNLVISAYAIWATGDDINSSFSLWNYDVRSDDCYKGGSGTEDGGVFNALEISKGINTTDWNINDIWKRLYQCITRANTALQSLDQMDEKTYPLKNQRIAEMRFLRGHAHFMLKQLFKKIVIVNDENMEPDAYNELSNTTYTNDEQWQKIADDFQFAYDNLPEVQIEKGRPAQAAAAAYLAKTYLYKAYRQDGADNALTGINEEDLKQVVKYTDPLIMAKGGYGLETDYSMNFLPQYENGAESVWAIQYSINDGTYNGNLNWGMGLTTPQILGCCDFHKPSQNLVNAFKTDSQGKPLFSTYDNENYEVATDNVDPRLFHTVGMPGFPYKYNEGYIIQKNDDWSRSKGLYGYYVSLKENVDPDCDCLKKGSYWASSLNHIVIRYADVLLMRAEALIQLNDGRITDAISLINEVRSRAAGSTMLIFNYKEDYGVNFKVTPYDLKAYAQDEAMKMLKWERRVEFGMESSRFFDLVRWGEAKDVINAYYVTEASRCSIYKNAGFTENKNEYLPVPFEQISASNGNYTQNFGW
modifications: lipid anchor (lipoprotein)
notes: numbers count on: the mature protein; His6 tag is chromosomal; also called SusD lid; WT (Bt1762-his strain); source: B. thetaiotaomicron VPI-5482 (Bt1762-his strain) grown on MM fructose; outer membrane extracted with LDAO; purified with Bt1763 (IMAC, SEC); not shown: His6, C-terminal, kept
[1]
  binding result: binds

B2: Bt1762-Bt1763 SusCD complex (complex, Bacteroides thetaiotaomicron)
chain 1: B1 chain
chain 2: T1 sequence (looked up)
modifications: lipid anchor (lipoprotein)
notes: Bt1762 (SusD), Bacteroides thetaiotaomicron VPI-5482; as m1; numbers count on: the mature protein; Bt1763 (SusC), Bacteroides thetaiotaomicron VPI-5482; as m2; One SusCD unit (one Bt1762, one Bt1763); two such units form the SusC2D2 dimer; also called Bt1762-63; BT1762-63; source: B. thetaiotaomicron VPI-5482 (Bt1762-his strain) grown on MM fructose; outer membrane extracted with LDAO; purified …
[2]
  stoichiometry N: 2
